# Assays:
# Staphylococcus aureus [1] = assay: Antibacterial activity against Staphylococcus aureus ATCC 29213; format: functional
# Staphylococcus aureus [2] = assay: Antibacterial activity against methicillin-resistant Staphylococcus aureus ATCC 335913; format: functional
# [3] = tested on: Mycolicibacterium smegmatis; assay: Antibacterial activity against Mycobacterium smegmatis MC2 155 ATCC; format: functional
# Staphylococcus aureus [4] = assay: Inhibition of MDR1-mediated […] in Staphylococcus aureus ATCC 29213 assessed as fractional inhibitory concentration index after 24 to 48 hrs in presence of ampicillin
# Staphylococcus aureus [5] = assay: Inhibition of MDR1-mediated methicillin-resistant Staphylococcus aureus ATCC 335913 assessed as fractional inhibitory concentration index after 24 to 48 hrs in presence of ampicillin
# [6] = tested on: Mycolicibacterium smegmatis MC2 155; assay: Inhibition of MDR1-mediated Mycobacterium smegmatis MC2 155 ATCC assessed as fractional inhibitory concentration index after 24 to 48 hrs in presence of ampicillin
# Staphylococcus aureus [7] = assay: Inhibition of MDR1-mediated […] in Staphylococcus aureus ATCC 29213 assessed as fractional inhibitory concentration index after 24 to 48 hrs in presence of kanamycin
# Staphylococcus aureus [8] = assay: Inhibition of MDR1-mediated methicillin-resistant Staphylococcus aureus ATCC 335913 assessed as fractional inhibitory concentration index after 24 to 48 hrs in presence of kanamycin
# [9] = tested on: Mycolicibacterium smegmatis MC2 155; assay: Inhibition of MDR1-mediated Mycobacterium smegmatis MC2 155 ATCC assessed as fractional inhibitory concentration index after 24 to 48 hrs in presence of kanamycin
# Staphylococcus aureus [10] = assay: Inhibition of MDR1-mediated […] in Staphylococcus aureus ATCC 29213 assessed as fractional inhibitory concentration index after 24 to 48 hrs in presence of chloramphenicol
# Staphylococcus aureus [11] = assay: Inhibition of MDR1-mediated methicillin-resistant Staphylococcus aureus ATCC 335913 assessed as fractional inhibitory concentration index after 24 to 48 hrs in presence of chloramphenicol
# [12] = tested on: Mycolicibacterium smegmatis MC2 155; assay: Inhibition of MDR1-mediated Mycobacterium smegmatis MC2 155 ATCC assessed as fractional inhibitory concentration index after 24 to 48 hrs in presence of chloramphenicol
# Staphylococcus aureus [13] = assay: Inhibition of MDR1-mediated […] in Staphylococcus aureus ATCC 29213 assessed as fractional inhibitory concentration index after 24 to 48 hrs in presence of ciprofloxacin
# Staphylococcus aureus [14] = assay: Inhibition of MDR1-mediated methicillin-resistant Staphylococcus aureus ATCC 335913 assessed as fractional inhibitory concentration index after 24 to 48 hrs in presence of ciprofloxacin
# [15] = tested on: Mycolicibacterium smegmatis MC2 155; assay: Inhibition of MDR1-mediated Mycobacterium smegmatis MC2 155 ATCC assessed as fractional inhibitory concentration index after 24 to 48 hrs in presence of ciprofloxacin
# Staphylococcus aureus [16] = assay: Inhibition of MDR1 in Staphylococcus aureus ATCC 29213 assessed as increase in accumulation of ampicillin by EtBr efflux using flow cytometer
# Staphylococcus aureus [17] = assay: Inhibition of MDR1 in methicillin-resistant Staphylococcus aureus ATCC 335913 assessed as increase in accumulation of ampicillin by EtBr efflux using flow cytometer
# [18] = tested on: Mycolicibacterium smegmatis MC2 155; assay: Inhibition of MDR1 in Mycobacterium smegmatis ATCC MC2155 assessed as increase in accumulation of ampicillin by EtBr efflux using flow cytometer
# Staphylococcus aureus [19] = assay: Inhibition of MDR1 in Staphylococcus aureus ATCC 29213 assessed as increase in accumulation of kanamycin by EtBr efflux using flow cytometer
# Staphylococcus aureus [20] = assay: Inhibition of MDR1 in methicillin-resistant Staphylococcus aureus ATCC 335913 assessed as increase in accumulation of kanamycin by EtBr efflux using flow cytometer
# [21] = tested on: Mycolicibacterium smegmatis MC2 155; assay: Inhibition of MDR1 in Mycobacterium smegmatis ATCC MC2155 assessed as increase in accumulation of kanamycin by EtBr efflux using flow cytometer
# Staphylococcus aureus [22] = assay: Inhibition of MDR1 in Staphylococcus aureus ATCC 29213 assessed as increase in accumulation of chloramphenicol by EtBr efflux using flow cytometer
# Staphylococcus aureus [23] = assay: Inhibition of MDR1 in methicillin-resistant Staphylococcus aureus ATCC 335913 assessed as increase in accumulation of chloramphenicol by EtBr efflux using flow cytometer
# [24] = tested on: Mycolicibacterium smegmatis MC2 155; assay: Inhibition of MDR1 in Mycobacterium smegmatis ATCC MC2155 assessed as increase in accumulation of chloramphenicol by EtBr efflux using flow cytometer
# Staphylococcus aureus [25] = assay: Inhibition of MDR1 in Staphylococcus aureus ATCC 29213 assessed as increase in accumulation of ciprofloxacin by EtBr efflux using flow cytometer
# Staphylococcus aureus [26] = assay: Inhibition of MDR1 in methicillin-resistant Staphylococcus aureus ATCC 335913 assessed as increase in accumulation of ciprofloxacin by EtBr efflux using flow cytometer
# [27] = tested on: Mycolicibacterium smegmatis MC2 155; assay: Inhibition of MDR1 in Mycobacterium smegmatis ATCC MC2155 assessed as increase in accumulation of ciprofloxacin by EtBr efflux using flow cytometer
smiles,measurement,setting,value
CC1(C)S[C@@H]2[C@H](NC(=O)[C@H](N)c3ccccc3)C(=O)N2[C@H]1C(=O)O [AMPICILLIN],MIC,Staphylococcus aureus [1],5 µg/mL
same,MIC,Staphylococcus aureus [2],200 µg/mL
same,MIC,[3],250 µg/mL
Cc1ccc(-c2cc(C(F)(F)F)nn2-c2ccc(S(N)(=O)=O)cc2)cc1 [CELECOXIB],MIC,Staphylococcus aureus [1],> 100 µM
same,MIC,Staphylococcus aureus [2],> 100 µM
same,MIC,[3],> 100 µM
same,fractional inhibitory concentration index (FICI),Staphylococcus aureus [4],0.281
same,fractional inhibitory concentration index (FICI),Staphylococcus aureus [5],0.312
same,fractional inhibitory concentration index (FICI),[6],0.0665
same,fractional inhibitory concentration index (FICI),Staphylococcus aureus [7],0.531
same,fractional inhibitory concentration index (FICI),Staphylococcus aureus [8],0.312
same,fractional inhibitory concentration index (FICI),[9],0.312
same,fractional inhibitory concentration index (FICI),Staphylococcus aureus [10],0.281
same,fractional inhibitory concentration index (FICI),Staphylococcus aureus [11],0.312
same,fractional inhibitory concentration index (FICI),[12],0.562
same,fractional inhibitory concentration index (FICI),Staphylococcus aureus [13],0.281
same,fractional inhibitory concentration index (FICI),Staphylococcus aureus [14],0.312
same,fractional inhibitory concentration index (FICI),[15],0.188
same,inhibition,Staphylococcus aureus [16],Dose-dependent effect
same,inhibition,Staphylococcus aureus [17],Dose-dependent effect
same,inhibition,[18],Dose-dependent effect
same,inhibition,Staphylococcus aureus [19],Dose-dependent effect
same,inhibition,Staphylococcus aureus [20],Dose-dependent effect
same,inhibition,[21],Dose-dependent effect
same,inhibition,Staphylococcus aureus [22],Dose-dependent effect
same,inhibition,Staphylococcus aureus [23],Dose-dependent effect
same,inhibition,[24],Dose-dependent effect
same,inhibition,Staphylococcus aureus [25],Dose-dependent effect
same,inhibition,Staphylococcus aureus [26],Dose-dependent effect
same,inhibition,[27],Dose-dependent effect
O=C(N[C@H](CO)[C@H](O)c1ccc([N+](=O)[O-])cc1)C(Cl)Cl [CHLORAMPHENICOL],MIC,Staphylococcus aureus [1],5 µg/mL
same,MIC,Staphylococcus aureus [2],100 µg/mL
same,MIC,[3],10 µg/mL
O=C(O)c1cn(C2CC2)c2cc(N3CCNCC3)c(F)cc2c1=O [CIPROFLOXACIN],MIC,Staphylococcus aureus [1],0.25 µg/mL
same,MIC,Staphylococcus aureus [2],0.25 µg/mL
same,MIC,[3],0.5 µg/mL
NC[C@H]1O[C@H](O[C@H]2[C@H](O)[C@@H](O[C@H]3O[C@H](CO)[C@@H](O)[C@H](N)[C@H]3O)[C@H](N)C[C@@H]2N)[C@H](O)[C@@H](O)[C@@H]1O [KANAMYCIN],MIC,Staphylococcus aureus [1],10 µg/mL
same,MIC,Staphylococcus aureus [2],100 µg/mL
same,MIC,[3],0.5 µg/mL

# Reference: ChEMBL document CHEMBL1687822, “Inhibition of bacterial multidrug resistance by celecoxib, a cyclooxygenase-2 inhibitor” (2011)
